Measurements reported in US10278965B2, “Method of detecting cancer stem cell, method of screening cancer stem cell, and method of inhibiting cancer stem cell” (CANON KABUSHIKI KAISHA, priority 2012, dated 2019).

Legend:
[1] = tested on: Human chronic myelocytic leukemia cells, K562, ALDH (+) fraction (cancer stem cells); assay: Cancer stem-cell selective inhibitory action against chronic myelocytic leukemia cells, ALDH (+) fraction; format: cell-based; details: 24 hours
Method: Human chronic myelocytic leukemia cells, K562, were pre-cultured in RPMI1640 medium containing 10% FBS at 37° C. in a 5% CO2 ambient. Then, a fraction containing 80% or more of cancer stem cells was extracted by use of a cancer stem cell marker, ALDEFLUOR reagent (manufactured by VERITAS Corporation) and FACSAria flow cytometry (manufactured by Nippon Becton, Dickinson and Company). […] The cultured cells were analyzed for viable cell count according to CellTiter-Glo Luminescent Cell Viability Assay (manufactured by Promega KK.). […] Note that hereinafter, an ALDEFLUOR reagent positive fraction (deemed as cancer stem cells) is represented by ALDH (+), whereas an ALDEFLUOR reagent negative fraction (not deemed as cancer stem cells) is represented by ALDH (−), in some cases.
Further, the growth suppressive effect of cancer stem cells was evaluated based on the following criteria. Note that the growth rate in Examples is a value obtained by dividing viable cell count after culture by the number of cells at the initiation time of culture.

[2] = tested on: Prostatic cancer cells, PC-3; assay: Cancer cell inhibitory (growth suppressive) action against prostatic cancer cells, CellTiter-Glo viable cell count; format: cell-based; details: PC-3, 10 μg/mL, 24 hours
Method: Prostatic cancer cells, PC-3, were pre-cultured in RPMI1640 medium containing 10% FBS at 37° C. in a 5% CO2 ambient. Thereafter, 4,000 cells were seeded per well of a 96-well plate and further cultured for 24 hours. Subsequently, Compound (1) was added to the medium so as to obtain a final concentration of 10 μg/mL and cultured at 37° C. for 24 hours in a 5% CO2 ambient. The cultured cells were analyzed for viable cell count according to Cell Titer-Glo Luminescent Cell Viability Assay (manufactured by Promega KK.).
Viable cell count was analyzed in the same manner as in Experimental Example 24 except that Compound (1) of Experimental Example 24 was changed to each compound shown in Table 2.
Viable cell count was analyzed in the same manner as in Experimental Example 24 except that Compound (1) of Experimental Example 24 was changed to each of Comparative compounds 1 to 4, to obtain growth rates.
Note that the growth rate used in Examples refers to the rate (expressed by percentage) of viable cell count after culture relative to the number of cells at the initiation of cell culture. Evaluation criteria are the same as in the above experiments.

[3] = tested on: Human pancreas cancer cells, KLM-1; assay: Cancer cell inhibitory (growth suppressive) action against pancreatic cancer cells, CellTiter-Glo viable cell count; details: KLM-1, 10 μg/mL, 24 hours
Method: Human pancreas cancer cells, KLM-1, were pre-cultured in RPMI1640 medium containing 10% FBS at 37° C. in a 5% CO2 ambient. Thereafter, 4,000 cells were seeded per well of a 96-well plate and further cultured for 24 hours. […] The cultured cells were analyzed for viable cell count according to CellTiter-Glo Luminescent Cell Viability Assay (manufactured by Promega KK.).
Evaluation of cancer cell inhibition against the pancreatic cancer cells (KLM-1) (growth suppression) was made based on the following criteria. Note that the growth rate used in Examples refers to the rate (expressed by percentage) of viable cell count after culture relative to the number of cells at the initiation of cell culture.

[4] = Measurement of fluorescent property of compound; format: physicochemical; details: 5 μM DMSO solution
Method: The excitation wavelength and fluorescence wavelength of the compound were measured by a FL4500 spectrofluorometric measuring machine manufactured by Hitachi High-Technologies Corporation.

SMILES | Excitation wavelength λex [4] | Fluorescence wavelength λem [4] | ALDH(+) Superiority evaluation ([1]; K562, 1 μg/ml) | ALDH(+)/ALDH(−) ([1]; K562, 1 μg/ml) | Cancer cell growth rate (%) [2] | Evaluation (cancer cell growth rate) [2] | Cancer cell growth rate (%) [3] | Evaluation (cancer cell growth rate) [3] | ALDH(+) Superiority evaluation ([1]; K562, 10 μg/ml) | ALDH(+)/ALDH(−) ([1]; K562, 10 μg/ml)
O=C(O)CN1/C(=C\C2=C(Cl)C(=C/c3sc4ccccc4[n+]3CC(=O)O)/CCC2)Sc2ccccc21 [Comparative compound 3, reference compound] | – | – | C (The value of the growth rate of ALDH (+)/the growth rate of ALDH (−) is 0.95 or more) | 0.79 | 101% | C (Cancer cell growth rate is 50% or more) | 93.0% | C (Cancer cell growth rate is 50% or more) | – | –
CCC(=C\c1sc2ccc3ccccc3c2[n+]1CC)/C=C1/Sc2ccc3ccccc3c2N1CC [Compound 10] | 586 nm | 615 nm | – | – | – | – | 13.5% | A (Cancer cell growth rate is less than 20%) | – | –
CCCCCCCN1/C(=C\C=C\c2oc3ccccc3[n+]2CCCCCCC)Oc2ccccc21 [Compound 18] | 492 nm | 510 nm | – | – | – | – | – | – | A (The value of the growth rate of ALDH (+)/the growth rate of ALDH (−) is less than 0.8) | 0.29
CN1/C(=C\C=C\C2=[N+](C)c3ccc4ccccc4c3C2(C)C)C(C)(C)c2c1ccc1ccccc21 [Compound 20] | – | – | – | – | 13.1% | A (Cancer cell growth rate is less than 20%) | 1.2% | A (Cancer cell growth rate is less than 20%) | – | –
CCN1/C(=C/C=C/C=C/C=C/C2=[N+](CC)c3ccccc3C23CCCCC3)C2(CCCCC2)c2ccccc21 [Compound 31] | – | – | – | – | – | – | 30.5% | B (Cancer cell growth rate is 20% or more and less than 50%) | – | –
CCN1/C(=C/C=C/C=C/C=C/C2=[N+](CC)c3ccccc3C2(C)C)C(C)(C)c2ccccc21 [Compound 32] | – | – | – | – | – | – | – | – | A (The value of the growth rate of ALDH (+)/the growth rate of ALDH (−) is less than 0.8) | 0.32
CCOC(=O)C1(C(=O)OCC)CC(/C=C/C2=[N+](CC)c3ccccc3C2(C)C)=CC(=C/C=C2/N(CC)c3ccccc3C2(C)C)/C1 [Compound 37] | 650 nm | 770 nm | – | – | – | – | 4.8% | A (Cancer cell growth rate is less than 20%) | – | –
CCN1/C(=C/C=C2\CCCC(/C=C/C3=[N+](CC)c4ccc(OC)cc4C3(C)C)=C2Cl)C(C)(C)c2cc(OC)ccc21 [Compound 40] | 819 nm | 825 nm | – | – | – | – | 14.1% | A (Cancer cell growth rate is less than 20%) | – | –
CCCCN1/C(=C/C=C2\CCCC(/C=C/C3=[N+](CCCC)c4ccccc4C3(C)C)=C2Cl)C(C)(C)c2ccccc21 [Compound 43] | 797 nm | 816 nm | – | – | 12.3% | A (Cancer cell growth rate is less than 20%) | 35.6% | B (Cancer cell growth rate is 20% or more and less than 50%) | – | –
CCN1C=C/C(=C/C=C/c2ccc3ccccc3[n+]2CC)c2ccccc21.[I-] [Compound 45] | 665 nm | 681 nm | – | – | – | – | 28.5% | B (Cancer cell growth rate is 20% or more and less than 50%) | – | –
CCN1C=C/C(=C/C=C/c2cc[n+](CC)c3ccccc23)c2ccccc21 [Compound 46] | 679 nm | 715 nm | – | – | 17.7% | A (Cancer cell growth rate is less than 20%) | 16.7% | A (Cancer cell growth rate is less than 20%) | – | –
CCN1/C(=C\C=C\c2ccc3ccccc3[n+]2CC)C=Cc2ccccc21.[I-] [Compound 47] | 615 nm | 637 nm | – | – | 13.8% | A (Cancer cell growth rate is less than 20%) | 8.6% | A (Cancer cell growth rate is less than 20%) | – | –
CCCC[N+]1=C(/C=C/C2=C(Cl)C(=C/C=C3/N(C)c4ccccc4C3(C)C)/CCC2)C(C)(C)c2c1ccc1ccccc21 [Compound 51] | – | – | – | – | – | – | – | – | A (The value of the growth rate of ALDH (+)/the growth rate of ALDH (−) is less than 0.8) | 0.27
CCCCN1/C(=C/C=C2\CCCC(/C=C/C3=[N+](CCCC)c4ccccc4C3(C)C)=C2c2ccccc2)C(C)(C)c2ccccc21 [Compound 54] | 774 nm | 800 nm | – | – | – | – | – | – | A (The value of the growth rate of ALDH (+)/the growth rate of ALDH (−) is less than 0.8) | 0.50
CCC(/C=C1\Oc2ccccc2N1CC)=C\c1oc2ccccc2[n+]1CC [Compound 56] | – | – | – | – | – | – | – | – | A (The value of the growth rate of ALDH (+)/the growth rate of ALDH (−) is less than 0.8) | 0.65
CCC(=C\c1oc2ccc(-c3ccccc3)cc2[n+]1CC)/C=C1/Oc2ccc(-c3ccccc3)cc2N1CC [Compound 57] | – | – | – | – | – | – | – | – | B (The value of the growth rate of ALDH (+)/the growth rate of ALDH (−) is 0.8 or more and less than 0.95) | 0.81

Further lines, with some results ahead:

Excitation wavelength λex [4] | Fluorescence wavelength λem [4] | SMILES | ALDH(+) Superiority evaluation ([1]; K562, 1 μg/ml) | ALDH(+)/ALDH(−) ([1]; K562, 1 μg/ml) | Cancer cell growth rate (%) [2] | Evaluation (cancer cell growth rate) [2] | Cancer cell growth rate (%) [3] | Evaluation (cancer cell growth rate) [3] | ALDH(+) Superiority evaluation ([1]; K562, 10 μg/ml) | ALDH(+)/ALDH(−) ([1]; K562, 10 μg/ml)
563 nm | 569 nm | CCC(/C=C1\Sc2ccccc2N1CC)=C\c1sc2ccccc2[n+]1CC.[I-] [Compound 4] | – | – | 19.5% | A (Cancer cell growth rate is less than 20%) | 3.1% | A (Cancer cell growth rate is less than 20%) | – | –
344 nm | 381 nm | CCC(=C\c1sc2c3ccccc3ccc2[n+]1CC)/C=C1/Sc2c(ccc3ccccc23)N1CC.[I-] [Compound 7] | – | – | 15.3% | A (Cancer cell growth rate is less than 20%) | 13.0% | A (Cancer cell growth rate is less than 20%) | – | –
354 nm | 469 nm | CCN1/C(=C\C(C)=C\c2sc3c4ccccc4ccc3[n+]2CC)Sc2c1ccc1ccccc21 [Compound 11] | – | – | 4.3% | A (Cancer cell growth rate is less than 20%) | 5.0% | A (Cancer cell growth rate is less than 20%) | – | –
589 nm | 614 nm | CCN1\C(=C/C=C/C=C/c2oc3ccccc3[n+]2CC)Oc2ccccc21 [Compound 28] | B (The value of the growth rate of ALDH (+)/the growth rate of ALDH (−) is 0.8 or more and less than 0.95) | 0.83 | – | – | – | – | A (The value of the growth rate of ALDH (+)/the growth rate of ALDH (−) is less than 0.8) | 0.69
688 nm | 715 nm | CC(C)CCN1/C(=C/C=C/C=C/C2=[N+](CCC(C)C)c3ccc4ccccc4c3C2(C)C)C(C)(C)c2c1ccc1ccccc21 [Compound 55] | – | – | – | – | – | – | A (The value of the growth rate of ALDH (+)/the growth rate of ALDH (−) is less than 0.8) | 0.33
804 nm | 520 nm | CN1/C(=C/C=C2\CCCC(/C=C/C3=[N+](C)c4ccccc4C3(C)C)=C2Sc2ccccc2)C(C)(C)c2ccccc21 [Compound 59] | A (The value of the growth rate of ALDH (+)/the growth rate of ALDH (−) is less than 0.8) | 0.67 | – | – | – | – | A (The value of the growth rate of ALDH (+)/the growth rate of ALDH (−) is less than 0.8) | 0.22
670 nm | 696 nm | CN1/C(=C/C=C/C=C/C2=[N+](C)c3ccc4ccccc4c3C2(C)C)C(C)(C)c2cc(Cl)ccc21 [Compound 60] | – | – | – | – | – | – | A (The value of the growth rate of ALDH (+)/the growth rate of ALDH (−) is less than 0.8) | 0.34
